The values below come from ChEMBL document CHEMBL3046950, “Insecticide resistance traits differ among and within host races in Aphis gossypii” (2010).

SMILES strings stand for the structures.

For assay [1], the system named is Aphis gossypii. Format: functional.
Assay [2] concerns Aphis gossypii. Format: functional. This is another data set of the same source.
Assay [3] deals with Aphis gossypii. Format: functional. The source holds these as a separate data set.
Assay [4] concerns Aphis gossypii. Format: functional. The source holds these as a separate data set.
Assay [5] deals with Aphis gossypii. Format: functional. The source holds these as a separate data set.
Assay [6] deals with Aphis gossypii. Format: functional. The source holds these as a separate data set.
In assay [7] the test system is Aphis gossypii. The assay is described as follows: Insecticidal activity against Aphis gossypii clone Ivo (cotton aphid) in cotton plant leaf assessed as mortality after 24 hr by leaf disk assay. Format: functional.
For assay [8], the system named is Aphis gossypii. Briefly: Insecticidal activity against Aphis gossypii clone Burk (cotton aphid) in cotton plant leaf assessed as mortality after 24 hr by leaf disk assay. Format: functional.
Assay [9] relates to Aphis gossypii. Briefly: Insecticidal activity against Aphis gossypii clone Auber (cotton aphid) in egg plant leaf assessed as mortality after 24 hr by leaf disk assay. Format: functional.
Assay [10] has as its system Aphis gossypii. The assay is described as follows: Insecticidal activity against Aphis gossypii clone PsP4 (cotton aphid) in pepper plant leaf assessed as mortality after 24 hr by leaf disk assay. Format: functional.
Assay [11] concerns Aphis gossypii. Format: functional, clone C4.
Assay [12] deals with Aphis gossypii. Format: functional, clone C9.
Assay [13] concerns Aphis gossypii. Format: functional, clone NM1.
Assay [14] has as its system Aphis gossypii. The assay is described as follows: Insecticidal activity against Aphis gossypii clone Burk (cotton aphid) in egg plant leaf assessed as mortality after 24 hr by leaf disk assay in presence of piperonyl butoxide. Format: functional.
The test system of assay [15] is Aphis gossypii. The assay is described as follows: Insecticidal activity against Aphis gossypii clone Auber (cotton aphid) in egg plant leaf assessed as mortality after 24 hr by leaf disk assay in presence of piperonyl butoxide. Format: functional.
Assay [16] has as its system Aphis gossypii. Briefly: Insecticidal activity against Aphis gossypii clone Auber (cotton aphid) in egg plant leaf assessed as mortality after 24 hr by leaf disk assay in presence of S,S,S-tri-n-butyl phosphorotrithioate. Format: functional.
In assay [17] the test system is Aphis gossypii. The assay is described as follows: Insecticidal activity against Aphis gossypii clone NM1 (cotton aphid) in zucchini or squash leaf assessed as mortality after 24 hr by leaf disk assay in presence of S,S,S-tri-n-butyl phosphorotrithioate. Format: functional.
Assay [18] deals with Aphis gossypii. Briefly: Insecticidal activity against Aphis gossypii clone NM1 (cotton aphid) in zucchini or squash leaf assessed as mortality after 24 hr by leaf disk assay in presence of piperonyl butoxide. Format: functional.
Assay [19] relates to Aphis gossypii. Briefly: Synergist ratio, ratio of LC50 for Aphis gossypii clone Burk (cotton aphid) in presence of S,S,S-tri-n-butyl phosphorotrithioate to LC50 for Aphis gossypii clone Burk. Format: functional.
Assay [20] has as its system Aphis gossypii. Briefly: Synergist ratio, ratio of LC50 for Aphis gossypii clone Burk (cotton aphid) in presence of piperonyl butoxide to LC50 for Aphis gossypii clone […]. Format: functional.
Assay [21] deals with Aphis gossypii. Briefly: Synergist ratio, ratio of LC50 for Aphis gossypii clone NM1 (cotton aphid) in presence of S,S,S-tri-n-butyl phosphorotrithioate to LC50 for Aphis gossypii clone NM1. Format: functional.
Assay [22] concerns Aphis gossypii. Briefly: Synergist ratio, ratio of LC50 for Aphis gossypii clone NM1 (cotton aphid) in presence of piperonyl butoxide to LC50 for Aphis gossypii clone NM1. Format: functional.
The test system of assay [23] is Aphis gossypii. Briefly: Synergist ratio, ratio of LC50 for Aphis gossypii clone Auber (cotton aphid) in presence of piperonyl butoxide to LC50 for Aphis gossypii clone Auber. Format: functional.
Assay [24] relates to Aphis gossypii. Briefly: Synergist ratio, ratio of LC50 for Aphis gossypii clone Auber (cotton aphid) in presence of S,S,S-tri-n-butyl phosphorotrithioate to LC50 for Aphis gossypii clone Auber. Format: functional.
The test system of assay [25] is Aphis gossypii. Briefly: Insecticidal activity against Aphis gossypii clone Burk (cotton aphid) in egg plant leaf assessed as mortality after 24 hr by leaf disk assay in presence of S,S,S-tri-n-butyl phosphorotrithioate. Format: functional.

`C/C(=N\C#N)N(C)Cc1ccc(Cl)nc1`: the RatioLC50 in the assay with Aphis gossypii [1] is on record as 1; with Aphis gossypii [2] it was 1.6; with Aphis gossypii [3], 2; in the assay on Aphis gossypii [4], 0.6; in the assay on Aphis gossypii [5] it was 0.9; in the assay with Aphis gossypii [6], 1.1. Moreover, the LC50 was determined as 4 ugAi/ml with Aphis gossypii [7]; 6.4 ugAi/ml in the assay on Aphis gossypii [8]; 7.9 ugAi/ml in the assay on Aphis gossypii [9]; 2.5 ugAi/ml in the assay on Aphis gossypii [10]; 3.7 ugAi/ml in the assay on Aphis gossypii [11]; 4.3 ugAi/ml in the assay with Aphis gossypii [12]. Further, the LC50 in the assay with Aphis gossypii [13] turned out to be 3.9 ugAi/ml.

As to `CC1(C)C(C=C(Cl)Cl)C1C(=O)OC(C#N)c1cccc(Oc2ccccc2)c1` (stereo not drawn) [ALPHA-CYPERMETHRIN], the LC50 in the assay with Aphis gossypii [14] turned out to be 207 ugAi/ml; with Aphis gossypii [15], 23360 ugAi/ml; with Aphis gossypii [16], 8.5 ugAi/ml; with Aphis gossypii [17], 119 ugAi/ml; in the assay on Aphis gossypii [18], 13.2 ugAi/ml; in the assay with Aphis gossypii [25], 18516 ugAi/ml. The LC50 in the assay on Aphis gossypii [7] was determined as 7.1 ugAi/ml; with Aphis gossypii [8], 6763.5 ugAi/ml; with Aphis gossypii [9], 504 ugAi/ml; in the assay with Aphis gossypii [10], 19.7 ugAi/ml; in the assay on Aphis gossypii [11], 6.3 ugAi/ml; with Aphis gossypii [12], 7.2 ugAi/ml. In the assay on Aphis gossypii [13], this compound had an LC50 of 10.9 ugAi/ml. The RatioLC50 with Aphis gossypii [1] is given as 0.5; in the assay with Aphis gossypii [2] it was 473; in the assay with Aphis gossypii [3], 41.2; with Aphis gossypii [19], 1.3; in the assay with Aphis gossypii [20], 1; in the assay on Aphis gossypii [21] it was 1.3. For the same compound, the RatioLC50 worked out at 0.8 with Aphis gossypii [22]; 4.2 in the assay with Aphis gossypii [23]; 2.4 with Aphis gossypii [24]; 1.4 in the assay on Aphis gossypii [4]; 0.4 in the assay on Aphis gossypii [5]; 0.5 in the assay on Aphis gossypii [6].

For `CCCCN(CCCC)SN(C)C(=O)Oc1cccc2c1OC(C)(C)C2` [CARBOSULFAN], the RatioLC50 in the assay on Aphis gossypii [1] is on record as 0.5; with Aphis gossypii [2] it was 0.7; with Aphis gossypii [3], 0.9; in the assay on Aphis gossypii [4], 0.9; with Aphis gossypii [5] it was 1.2; in the assay with Aphis gossypii [6] it was 1.2. Also, the LC50 worked out at 2.2 ugAi/ml in the assay with Aphis gossypii [7]; 3.1 ugAi/ml in the assay with Aphis gossypii [8]; 4 ugAi/ml in the assay on Aphis gossypii [9]; 4.2 ugAi/ml in the assay with Aphis gossypii [10]; 5.7 ugAi/ml in the assay on Aphis gossypii [11]; 5.6 ugAi/ml with Aphis gossypii [12]. The compound also yielded an LC50 in the assay on Aphis gossypii [13] of 4.6 ugAi/ml.

As for `Clc1ccc(C(c2ccc(Cl)cc2)C(Cl)(Cl)Cl)cc1` [CHLOROPHENOTHANE], the results for the RatioLC50 in the assay on Aphis gossypii [2] and in the assay on Aphis gossypii [3] were 148.7 and 1.4, respectively. For the same compound, the LC50 came out at 30738.4 ugAi/ml in the assay on Aphis gossypii [8], 291.6 ugAi/ml in the assay on Aphis gossypii [9] and 206.7 ugAi/ml in the assay with Aphis gossypii [13].

Turning to `CCCSP(=O)(OCC)Oc1ccc(Br)cc1Cl` (centres undefined) [PROFENOFOS], the RatioLC50 with Aphis gossypii [1] came to 0.4; in the assay on Aphis gossypii [2], 4.4; in the assay with Aphis gossypii [3], 5.3; with Aphis gossypii [4], 6.8; in the assay on Aphis gossypii [5], 1.3; with Aphis gossypii [6] it was 1.5. For the same compound, the LC50 was 4.3 ugAi/ml in the assay on Aphis gossypii [7]; 50 ugAi/ml in the assay on Aphis gossypii [8]; 59.6 ugAi/ml with Aphis gossypii [9]; 77.1 ugAi/ml in the assay with Aphis gossypii [10]; 15 ugAi/ml with Aphis gossypii [11]; 17.2 ugAi/ml in the assay with Aphis gossypii [12]. In the assay on Aphis gossypii [13], this compound came in with an LC50 of 11.3 ugAi/ml.
